Measurements: patent publication US9302999B2, “Substituted triazoles as herbicides” (E. I. DU PONT DE NEMOURS AND COMPANY, priority 2012, dated 2016)

How the values were obtained:
Format in all cases: in vivo
corn (Zea mays) = test: Test A pre-/postemergence: corn
Method in brief: (§1)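 Compounds, formulated with surfactant in non-phytotoxic solvent, were applied as a directed soil spray preemergence and as postemergence sprays to 2–10 cm, one- to two-leaf seedlings grown in loam soil blended with sand; visual injury, 0–100, assessed ~10 days post-treatment against untreated controls.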

[1] = system: wheat (Triticum aestivum); test: Test A pre-/postemergence: wheat
Method in brief: as §1

[2] = system: barnyardgrass (Echinochloa crus-galli); test: Test A pre-/postemergence: barnyardgrass
Method in brief: as §1

[3] = system: barnyardgrass (Echinochloa crus-galli); test: Test C flooded paddy test: barnyardgrass; details: scale 0 to 100 (0 no effect, 100 complete control)
Method in brief: (§2)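 Greenhouse plants treated at the 2-leaf stage by dosing the flood water (3 cm depth, maintained) were compared with controls after 13 to 15 days and rated 0 to 100, where 100 means complete control; a dash marks no test result.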

rice (Oryza sativa) = test: Test C flooded paddy test: rice; details: scale 0 to 100 (0 no effect, 100 complete control)
Method in brief: as §2

[4] = system: sedge, umbrella (small-flower umbrella sedge, Cyperus difformis); test: Test C flooded paddy test: sedge, umbrella; details: scale 0 to 100 (0 no effect, 100 complete control)
Method in brief: as §2

[5] = system: morningglory (Ipomoea spp.); test: Test A pre-/postemergence: morningglory
Method in brief: as §1

[6] = system: foxtail, giant (giant foxtail, Setaria faberii); test: Test A pre-/postemergence: foxtail, giant
Method in brief: as §1

[7] = system: pigweed (Amaranthus retroflexus); test: Test A pre-/postemergence: pigweed
Method in brief: as §1

[8] = system: velvetleaf (Abutilon theophrasti); test: Test A pre-/postemergence: velvetleaf
Method in brief: as §1

[9] = system: crabgrass, large (large crabgrass, Digitaria sanguinalis); test: Test A pre-/postemergence: crabgrass, large
Method in brief: as §1

[10] = system: ducksalad (Heteranthera limosa); test: Test C flooded paddy test: ducksalad; details: scale 0 to 100 (0 no effect, 100 complete control)
Method in brief: as §2

[11] = Postemergence, 125 g ai/ha, 0 to 100 scale, 0 is no effect, 100 is complete control
[12] = Postemergence, 500 g ai/ha, visual rating on 0 to 100 scale (0 no effect, 100 complete control), approximately ten days
[13] = Preemergence, 125 g ai/ha, 0 to 100 scale (0 no effect, 100 complete control)
[14] = Preemergence, 500 g ai/ha, 0 to 100 scale, 0 is no effect, 100 is complete control
[15] = Preemergence, 125 g ai/ha, 0 to 100 scale where 0 is no effect and 100 is complete control
[16] = Flood (flooded paddy test), 125 g ai/ha, visual rating after 13 to 15 days
[17] = Flood (flooded paddy test), 250 g ai/ha, visual rating after 13 to 15 days
[18] = Postemergence, 1000 g ai/ha, visual rating on 0 to 100 scale (0 no effect, 100 complete control), approximately ten days
[19] = Preemergence, 1000 g ai/ha, 0 to 100 scale, 0 is no effect, 100 is complete control

Cc1nn(-c2ccc(Br)cc2)nc1C(=O)c1cccc(C(F)(F)F)c1 [Compound 92]
0: Plant response rating, Corn (corn (Zea mays); [13]) | Plant response rating, Corn (corn (Zea mays); [14]) | Wheat plant response rating [1, 11] | Plant response rating, Wheat [1, 15] | Plant response rating, Wheat [1, 14] | Barnyardgrass plant response rating [2, 11] | Plant response rating, Barnyardgrass [2, 13] | Plant response rating, Barnyardgrass [2, 14] | Plant response rating, Barnyardgrass [3, 16] | Plant response rating, Barnyardgrass [3, 17] | Plant response rating, Barnyardgrass ([3]; Flood, 31 g ai/ha) | Plant response rating, Barnyardgrass ([3]; Flood, 62 g ai/ha) | Plant response rating, Rice (rice (Oryza sativa); [16]) | Plant response rating, Rice (rice (Oryza sativa); [17]) | Plant response rating, Rice (rice (Oryza sativa); Flood, 31 g ai/ha) | Plant response rating, Rice (rice (Oryza sativa); Flood, 62 g ai/ha) | Plant response rating, Sedge, Umbrella [4, 16] | Plant response rating, Sedge, Umbrella [4, 17] | Plant response rating, Sedge, Umbrella ([4]; Flood, 31 g ai/ha) | Plant response rating, Sedge, Umbrella ([4]; Flood, 62 g ai/ha) | Plant response rating, Morningglory [5, 15] | Plant response rating, Morningglory [5, 14] | Plant response rating, Pigweed [7, 15] | Plant response rating, Velvetleaf [8, 15] | Plant response rating, Velvetleaf [8, 14] | Plant response rating, Ducksalad [10, 16] | Plant response rating, Ducksalad [10, 17] | Plant response rating, Ducksalad ([10]; Flood, 31 g ai/ha) | Plant response rating, Ducksalad ([10]; Flood, 62 g ai/ha)
90: Pigweed plant response rating [7, 12]
20: Foxtail, Giant plant response rating [6, 12] | Plant response rating, Foxtail, Giant [6, 14] | Velvetleaf plant response rating [8, 11] | Velvetleaf plant response rating [8, 12]
40: Plant response rating, Crabgrass, Large [9, 14]
30: Morningglory plant response rating [5, 12] | Pigweed plant response rating [7, 11] | Crabgrass, Large plant response rating [9, 12]
10: Corn plant response rating (corn (Zea mays); [11]) | Corn plant response rating (corn (Zea mays); [12]) | Wheat plant response rating [1, 12] | Barnyardgrass plant response rating [2, 12] | Morningglory plant response rating [5, 11] | Foxtail, Giant plant response rating [6, 11] | Plant response rating, Foxtail, Giant [6, 15] | Plant response rating, Pigweed [7, 14] | Crabgrass, Large plant response rating [9, 11] | Plant response rating, Crabgrass, Large [9, 13]

CSc1ccc(-n2nc(C)c(C(=O)c3cccc(C(F)(F)F)c3)n2)cc1 [Compound 93]
10: Corn plant response rating (corn (Zea mays); [11]) | Corn plant response rating (corn (Zea mays); [12]) | Barnyardgrass plant response rating [2, 12] | Morningglory plant response rating [5, 12] | Foxtail, Giant plant response rating [6, 11] | Foxtail, Giant plant response rating [6, 12] | Pigweed plant response rating [7, 11] | Velvetleaf plant response rating [8, 11] | Crabgrass, Large plant response rating [9, 11]
0: Plant response rating, Corn (corn (Zea mays); [13]) | Plant response rating, Corn (corn (Zea mays); [14]) | Wheat plant response rating [1, 11] | Wheat plant response rating [1, 12] | Plant response rating, Wheat [1, 15] | Plant response rating, Wheat [1, 14] | Barnyardgrass plant response rating [2, 11] | Plant response rating, Barnyardgrass [2, 13] | Plant response rating, Barnyardgrass [2, 14] | Plant response rating, Barnyardgrass [3, 16] | Plant response rating, Barnyardgrass [3, 17] | Plant response rating, Barnyardgrass ([3]; Flood, 31 g ai/ha) | Plant response rating, Barnyardgrass ([3]; Flood, 62 g ai/ha) | Plant response rating, Rice (rice (Oryza sativa); [16]) | Plant response rating, Rice (rice (Oryza sativa); [17]) | Plant response rating, Rice (rice (Oryza sativa); Flood, 31 g ai/ha) | Plant response rating, Rice (rice (Oryza sativa); Flood, 62 g ai/ha) | Plant response rating, Sedge, Umbrella [4, 16] | Plant response rating, Sedge, Umbrella [4, 17] | Plant response rating, Sedge, Umbrella ([4]; Flood, 31 g ai/ha) | Plant response rating, Sedge, Umbrella ([4]; Flood, 62 g ai/ha) | Morningglory plant response rating [5, 11] | Plant response rating, Morningglory [5, 15] | Plant response rating, Morningglory [5, 14] | Plant response rating, Foxtail, Giant [6, 15] | Plant response rating, Foxtail, Giant [6, 14] | Plant response rating, Pigweed [7, 15] | Plant response rating, Pigweed [7, 14] | Plant response rating, Velvetleaf [8, 15] | Plant response rating, Velvetleaf [8, 14] | Plant response rating, Crabgrass, Large [9, 13] | Plant response rating, Crabgrass, Large [9, 14] | Plant response rating, Ducksalad [10, 16] | Plant response rating, Ducksalad [10, 17] | Plant response rating, Ducksalad ([10]; Flood, 31 g ai/ha) | Plant response rating, Ducksalad ([10]; Flood, 62 g ai/ha)
20: Pigweed plant response rating [7, 12] | Velvetleaf plant response rating [8, 12] | Crabgrass, Large plant response rating [9, 12]

CCc1nn(-c2ccc(C(F)(F)F)cn2)nc1Cc1cccc(C(F)(F)F)c1 [Compound 108]
70: Barnyardgrass plant response rating [2, 12]
85: Plant response rating, Sedge, Umbrella [4, 17]
80: Plant response rating, Barnyardgrass [2, 14] | Plant response rating, Foxtail, Giant [6, 15] | Plant response rating, Pigweed [7, 15] | Velvetleaf plant response rating [8, 12]
60: Foxtail, Giant plant response rating [6, 11] | Velvetleaf plant response rating [8, 11]
30: Corn plant response rating (corn (Zea mays); [12]) | Wheat plant response rating [1, 12] | Plant response rating, Barnyardgrass [2, 13] | Plant response rating, Barnyardgrass [3, 17] | Plant response rating, Ducksalad [10, 16]
100: Morningglory plant response rating [5, 11] | Morningglory plant response rating [5, 12] | Plant response rating, Foxtail, Giant [6, 14] | Pigweed plant response rating [7, 12] | Plant response rating, Pigweed [7, 14] | Plant response rating, Crabgrass, Large [9, 14]
15: Plant response rating, Rice (rice (Oryza sativa); [16])
45: Plant response rating, Ducksalad [10, 17]
40: Barnyardgrass plant response rating [2, 11]
75: Plant response rating, Sedge, Umbrella [4, 16]
90: Foxtail, Giant plant response rating [6, 12] | Pigweed plant response rating [7, 11] | Crabgrass, Large plant response rating [9, 11] | Crabgrass, Large plant response rating [9, 12] | Plant response rating, Crabgrass, Large [9, 13]
0: Plant response rating, Corn (corn (Zea mays); [13]) | Plant response rating, Corn (corn (Zea mays); [14]) | Plant response rating, Wheat [1, 15] | Plant response rating, Wheat [1, 14] | Plant response rating, Barnyardgrass ([3]; Flood, 31 g ai/ha) | Plant response rating, Barnyardgrass ([3]; Flood, 62 g ai/ha) | Plant response rating, Rice (rice (Oryza sativa); Flood, 31 g ai/ha) | Plant response rating, Rice (rice (Oryza sativa); Flood, 62 g ai/ha) | Plant response rating, Morningglory [5, 15] | Plant response rating, Velvetleaf [8, 15] | Plant response rating, Ducksalad ([10]; Flood, 31 g ai/ha) | Plant response rating, Ducksalad ([10]; Flood, 62 g ai/ha)
20: Corn plant response rating (corn (Zea mays); [11]) | Wheat plant response rating [1, 11] | Plant response rating, Barnyardgrass [3, 16] | Plant response rating, Rice (rice (Oryza sativa); [17]) | Plant response rating, Sedge, Umbrella ([4]; Flood, 31 g ai/ha) | Plant response rating, Sedge, Umbrella ([4]; Flood, 62 g ai/ha) | Plant response rating, Morningglory [5, 14] | Plant response rating, Velvetleaf [8, 14]

CCc1nn(-c2ccc(C(F)(F)F)cc2)nc1Cn1ccc(C(F)(F)F)n1 [Compound 118]
0: Plant response rating, Rice (rice (Oryza sativa); Flood, 31 g ai/ha) | Plant response rating, Rice (rice (Oryza sativa); Flood, 62 g ai/ha) | Plant response rating, Ducksalad ([10]; Flood, 31 g ai/ha)
65: Plant response rating, Barnyardgrass [3, 17] | Plant response rating, Sedge, Umbrella ([4]; Flood, 62 g ai/ha)
75: Plant response rating, Sedge, Umbrella [4, 17]
50: Plant response rating, Barnyardgrass [3, 16]
100: Morningglory plant response rating [5, 18] | Foxtail, Giant plant response rating [6, 19] | Pigweed plant response rating [7, 18] | Pigweed plant response rating [7, 19] | Crabgrass, Large plant response rating [9, 19]
15: Plant response rating, Rice (rice (Oryza sativa); [16])
70: Barnyardgrass plant response rating [2, 19] | Plant response rating, Sedge, Umbrella [4, 16] | Velvetleaf plant response rating [8, 18] | Plant response rating, Ducksalad [10, 16] | Plant response rating, Ducksalad [10, 17]
20: Corn plant response rating (corn (Zea mays); [19]) | Wheat plant response rating [1, 18] | Plant response rating, Barnyardgrass ([3]; Flood, 31 g ai/ha) | Plant response rating, Rice (rice (Oryza sativa); [17]) | Morningglory plant response rating [5, 19]
40: Plant response rating, Sedge, Umbrella ([4]; Flood, 31 g ai/ha)
90: Crabgrass, Large plant response rating [9, 18]
30: Corn plant response rating (corn (Zea mays); [18]) | Barnyardgrass plant response rating [2, 18] | Plant response rating, Barnyardgrass ([3]; Flood, 62 g ai/ha) | Plant response rating, Ducksalad ([10]; Flood, 62 g ai/ha)
60: Foxtail, Giant plant response rating [6, 18]
10: Wheat plant response rating [1, 19] | Velvetleaf plant response rating [8, 19]
